Reference: patent US20240398737A1, “FUNCTIONALIZED LONG-CHAIN HYDROCARBON MONO- AND DI-CARBOXYLIC ACIDS AND DERIVATIVES THEREOF, AND THEIR USE FOR THE PREVENTION OR TREATMENT OF DISEASE” (Espervita Therapeutics, Inc., priority 2021, published 2024)

Assays:
[1] = biological target: Aurora A (Homo sapiens (Human), UniProt O14965); experiment: Wild type kinase screen: Aurora A; assay type: biochemical; details: compound at 10 μM, 10 μM ATP, Data 1 and Data 2 duplicates
[2] = biological target: ERK7/MAPK15 (Homo sapiens (Human), UniProt Q8TD08); experiment: Wild type kinase screen: ERK7/MAPK15; assay type: biochemical; details: compound at 10 μM, 10 μM ATP, Data 1 and Data 2 duplicates
ERK7/MAPK15, sequence (Q8TD08 whole entry): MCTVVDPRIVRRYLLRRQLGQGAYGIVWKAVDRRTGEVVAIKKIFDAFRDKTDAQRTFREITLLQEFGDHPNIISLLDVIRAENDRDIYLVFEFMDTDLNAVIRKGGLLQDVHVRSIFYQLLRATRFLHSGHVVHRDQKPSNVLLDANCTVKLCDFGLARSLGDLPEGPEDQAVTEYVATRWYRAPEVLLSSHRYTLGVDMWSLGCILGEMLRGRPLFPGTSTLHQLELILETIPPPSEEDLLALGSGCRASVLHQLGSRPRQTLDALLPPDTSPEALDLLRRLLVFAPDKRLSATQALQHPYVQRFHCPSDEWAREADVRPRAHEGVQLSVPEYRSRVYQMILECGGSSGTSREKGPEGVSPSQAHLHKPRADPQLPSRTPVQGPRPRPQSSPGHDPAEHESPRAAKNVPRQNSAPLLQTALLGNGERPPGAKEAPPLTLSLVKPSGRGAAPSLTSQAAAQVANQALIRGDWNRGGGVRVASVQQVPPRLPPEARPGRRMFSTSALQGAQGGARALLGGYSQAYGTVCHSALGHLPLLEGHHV

[3] = biological target: MAPKAPK2 (Homo sapiens (Human), UniProt P49137); experiment: Wild type kinase screen: MAPKAPK2; assay type: biochemical; details: compound at 10 μM, 10 μM ATP, Data 1 and Data 2 duplicates
MAPKAPK2, sequence (P49137 whole entry, species assumed): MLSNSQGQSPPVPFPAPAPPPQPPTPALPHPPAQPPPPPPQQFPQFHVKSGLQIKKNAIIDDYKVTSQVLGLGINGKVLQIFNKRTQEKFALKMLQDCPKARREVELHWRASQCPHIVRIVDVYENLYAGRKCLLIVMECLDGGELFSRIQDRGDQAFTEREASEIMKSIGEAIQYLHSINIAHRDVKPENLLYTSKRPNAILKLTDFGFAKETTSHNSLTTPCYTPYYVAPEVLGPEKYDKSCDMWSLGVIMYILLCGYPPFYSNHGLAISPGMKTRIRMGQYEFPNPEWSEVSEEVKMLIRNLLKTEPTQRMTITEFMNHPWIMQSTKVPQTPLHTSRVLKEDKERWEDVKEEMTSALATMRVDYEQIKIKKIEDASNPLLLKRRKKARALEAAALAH

[4] = biological target: MELK (Homo sapiens (Human), UniProt Q14680); experiment: Wild type kinase screen: MELK; assay type: biochemical; details: compound at 10 μM, 10 μM ATP, Data 1 and Data 2 duplicates
MELK, sequence (Q14680 whole entry, species assumed): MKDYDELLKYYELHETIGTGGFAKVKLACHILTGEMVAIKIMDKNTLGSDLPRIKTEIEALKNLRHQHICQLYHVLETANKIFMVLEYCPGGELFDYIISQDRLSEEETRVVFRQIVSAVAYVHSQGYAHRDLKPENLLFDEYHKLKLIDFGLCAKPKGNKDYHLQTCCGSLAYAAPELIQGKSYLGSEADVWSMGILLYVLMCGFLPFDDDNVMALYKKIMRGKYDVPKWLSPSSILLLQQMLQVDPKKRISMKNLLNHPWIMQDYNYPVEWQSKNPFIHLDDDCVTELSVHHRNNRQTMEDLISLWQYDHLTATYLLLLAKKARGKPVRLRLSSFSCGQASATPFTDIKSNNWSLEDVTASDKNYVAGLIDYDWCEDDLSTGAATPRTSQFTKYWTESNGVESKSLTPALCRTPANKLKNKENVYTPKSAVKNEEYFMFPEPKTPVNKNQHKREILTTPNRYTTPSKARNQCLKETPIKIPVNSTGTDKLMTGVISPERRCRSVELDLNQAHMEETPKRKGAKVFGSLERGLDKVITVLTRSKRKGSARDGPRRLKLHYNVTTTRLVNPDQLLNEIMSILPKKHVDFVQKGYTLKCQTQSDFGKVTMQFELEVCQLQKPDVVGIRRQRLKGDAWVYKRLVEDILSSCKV

[5] = biological target: TNIK (Homo sapiens (Human), UniProt Q9UKE5); experiment: Wild type kinase screen: TNIK; assay type: biochemical; details: compound at 10 μM, 10 μM ATP, Data 1 and Data 2 duplicates
TNIK, sequence (Q9UKE5 whole entry, species assumed): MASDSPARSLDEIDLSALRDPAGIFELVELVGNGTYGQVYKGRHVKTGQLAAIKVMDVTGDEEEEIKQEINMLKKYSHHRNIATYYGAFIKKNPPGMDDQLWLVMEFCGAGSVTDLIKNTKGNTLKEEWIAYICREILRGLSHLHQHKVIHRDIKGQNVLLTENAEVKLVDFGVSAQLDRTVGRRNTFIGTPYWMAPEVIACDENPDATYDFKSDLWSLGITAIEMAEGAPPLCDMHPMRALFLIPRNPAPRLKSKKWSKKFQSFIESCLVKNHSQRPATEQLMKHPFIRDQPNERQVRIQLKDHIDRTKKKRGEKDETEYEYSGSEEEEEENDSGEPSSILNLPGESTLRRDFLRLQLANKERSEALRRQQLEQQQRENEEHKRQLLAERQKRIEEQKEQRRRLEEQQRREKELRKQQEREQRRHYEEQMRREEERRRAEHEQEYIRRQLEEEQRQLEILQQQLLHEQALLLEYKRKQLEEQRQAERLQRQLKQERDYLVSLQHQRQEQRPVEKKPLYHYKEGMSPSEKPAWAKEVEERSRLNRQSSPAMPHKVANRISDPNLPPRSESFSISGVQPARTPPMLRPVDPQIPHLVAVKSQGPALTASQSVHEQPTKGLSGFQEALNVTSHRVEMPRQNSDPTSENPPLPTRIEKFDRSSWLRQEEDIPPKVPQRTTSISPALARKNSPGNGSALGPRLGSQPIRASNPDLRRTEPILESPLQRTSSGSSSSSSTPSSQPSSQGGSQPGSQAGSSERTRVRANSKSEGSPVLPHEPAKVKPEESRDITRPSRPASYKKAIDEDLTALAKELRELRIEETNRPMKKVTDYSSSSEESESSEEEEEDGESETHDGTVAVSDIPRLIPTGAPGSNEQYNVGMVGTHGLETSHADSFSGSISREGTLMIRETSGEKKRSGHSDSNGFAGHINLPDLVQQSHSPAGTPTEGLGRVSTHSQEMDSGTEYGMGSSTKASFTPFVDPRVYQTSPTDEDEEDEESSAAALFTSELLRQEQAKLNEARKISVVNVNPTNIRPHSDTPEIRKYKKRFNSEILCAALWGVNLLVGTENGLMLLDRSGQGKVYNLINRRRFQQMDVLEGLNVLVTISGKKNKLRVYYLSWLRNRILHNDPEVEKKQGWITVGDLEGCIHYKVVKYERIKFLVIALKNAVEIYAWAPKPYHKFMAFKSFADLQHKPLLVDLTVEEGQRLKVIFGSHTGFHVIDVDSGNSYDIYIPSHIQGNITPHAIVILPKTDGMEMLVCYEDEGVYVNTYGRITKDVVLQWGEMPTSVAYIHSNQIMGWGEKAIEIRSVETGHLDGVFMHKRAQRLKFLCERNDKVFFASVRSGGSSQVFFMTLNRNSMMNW

[6] = Synthesis of CoA derivatives in rat liver microsomes (LCMS detection); assay type: in vitro ADME; details: 1 mM substrate, 30 min sample
Method: Reaction products were eluted using the gradient shown below: […]
Formation and detection of the Co-A derivatives of Compounds 1-32, 1-61, I-1 or III-1 in rat liver microsomes: 1 mM of each compound (Compounds I-32, I-61, I-1 or III-1) or palmitic acid (control) were used as substrate in the rat microsomal preparation for 0 and 30 min and extracted as described above. […] Further confirmation was obtained by exposing the compound to a collision energy causing the characteristic neutral loss of 3′-phosphonucleoside diphosphate (507 Da) producing the fragment ion 499.3 m/z. There was no evidence of the CoA derivative in the time 0 min sample.

[7] = Single and repeat dose plasma and tissue pharmacokinetics in male C57BL/6 mice; assay type: in vivo, mouse; details: for Bioavailability in brain compared to liver (fold lower): 20 mg/kg PO, male C57BL/6 mice; for Cmax / Tmax / AUC(0-t): male, C57BL/6, mouse, po
Text: Materials and methods. The study involved two arms: a single dose pharmacokinetic study and a 4-day repeated-dose pharmacokinetic study. For each arm, 56 inbred male C57BL/6 mice, aged at 6-7 week, were included. All animals were purchased from Charles River Lab (CRL, MA). Upon their arrival, they were kept in special-pathogen-free environment all the time. Briefly, they were housed in group on corncob bedding (ScottPharma, MA) in Innovive® caging system (Innovive, CA) on a 12-hour light-dark cycle (0700-1900) at 68-74° F. and 30-70% humidity. They were allowed continually to access water and regular rodent Purina 5001 diet (ScottPharma, MA) ad libitum and to acclimate in the facility for 5 days. Animal handling and procedures were conducted under the protocols and/or guidelines approved by the Institutional Animal Care and Use Committee (IACUC) of […] Biosciences, Inc. […] Also, 2× drug vehicle (3% CMC+0.4% Tween-20) was prepared and stored at 4° C. for a week. On the day of injection, 1 ml frozen 2× aqueous stock solution (20 mg/ml drug solution) aliquot is thawed and mix with another 1 ml 2× drug vehicle (3% Carboxymethyl cellulose+0.4% Tween 20) to prepare 10 mg/ml drug solution. A 25 g mouse would receive 250 μl of 10 mg/ml solution for a dose of 100 mg/kg. Lower concentrations can be achieved by further diluting the 10 mg/ml in 1× vehicle solution with 1× vehicle prepared with milliQ water. On each dosing day, both compound stocks and 2× vehicle were warmed to room temperature and was mixed at 1:1 ratio, given to a concentration of 10 mg/mL. Then 1:5-fold dilutions were obtained with 1× vehicle to 2 mg/mL. Dosing volume at 10 mL/kg (final dosage: 20 mg/kg) in the morning. Route of administration is oral gavage (volume of 10 ml/kg body weight). Study Design. In each group 4 male 6-7-week-old C57BL/6 mice were used. Doses were administered once daily via oral gavage for either a day (single dose arm, QDx1) or 4 consecutive days (repeated dose arm, QDx4) (FIG. 24). Blood, half of brain hemisphere, and one lobe of liver samples were collected from all animals of Day 1 (QDx1 arm) at pre-dose and 0.25, 2, 4, 8, 24 and 36 hours post dose, or Day 4 (QDx4 arm) at pre-dose and 0.25, 2, 4, 8, 24 and 48 hours post dose. Blood samples were collected by cardiac puncture. The blood samples were maintained in wet ice first and centrifuged to obtain plasma (2000×g, 4° C., 5 min). All three samples from each mouse were analyzed for either Compound I-1 or Compound I-32 contents by Integrated Analytical Solutions (Berkeley, CA) and the results were used for the generation of the pharmacokinetic graphs. Sample collection, storage, bioanalysis and statistical analysis. All plasma and tissue samples were analyzed by discovery grade bioanalytical method developed for estimation of each test compound in plasma and tissue samples using LC-MS/MS systems. Plasma samples were prepared as follows. Three volumes of acetonitrile containing internal standard was added to one volume of plasma to precipitate proteins. Samples were centrifuged (3000×g for 10 min) and supernatant removed for analysis by LC-MS/MS. Calibration standards and quality controls were made by preparation of a 1 mg/mL stock solution in MeOH and subsequently a series of working solutions in MeOH:water (1:1, v/v) which were spiked into blank plasma to yield a series of calibration standard samples in the range of 1.0 ng/mL to 10 μg/mL. All incurred PK/PD plasma samples were treated identically to the calibration standards and quality control samples. LC-MS/MS analysis was performed utilizing multiple reaction monitoring for detection of characteristic ions for each drug candidate, additional related analytes and internal standard. Tissue samples were prepared as follows. Three volumes of PBS buffer (pH 7.4) were added to one volume of each tissue sample which was then homogenized to obtain each tissue homogenate sample. […]

[8] = test system: hepatic de novo lipogenesis; experiment: Hepatic de novo lipogenesis (14C-glucose) in a murine model of NASH; assay type: in vivo, mouse; details: 100 mg/kg as printed in the text (Table 6 prints 60 mg/kg)
[9] = brain, 20 mg/kg, mouse brain, QD × 1, value in parentheses marked * (reanalysis per footnote of Tables 8-9)
[10] = brain, 20 mg/kg, mouse brain, QD × 4, value in parentheses marked * (reanalysis per footnote of Tables 8-9)
[11] = brain, 20 mg/kg/day, mouse brain, 20 mg/kg/day PO, 4 consecutive days (QD × 4)
[12] = brain, 20 mg/kg/day, mouse brain, 20 mg/kg/day PO, single dose (QD × 1)
[13] = liver, 20 mg/kg, mouse liver, QD × 1, value in parentheses: timepoint 0.25 h samples after reanalysis
[14] = liver, 20 mg/kg, mouse liver, QD × 4, value in parentheses: timepoint 0.25 h samples after reanalysis
[15] = liver, 20 mg/kg/day, mouse liver, 20 mg/kg/day PO, 4 consecutive days (QD × 4)
[16] = liver, 20 mg/kg/day, mouse liver, 20 mg/kg/day PO, single dose (QD × 1)
[17] = plasma, 20 mg/kg, mouse plasma, QD × 1, value in parentheses: timepoint 0.25 h samples after reanalysis
[18] = plasma, 20 mg/kg, mouse plasma, QD × 4, value in parentheses: timepoint 0.25 h samples after reanalysis
[19] = plasma, 20 mg/kg/day, mouse plasma, 20 mg/kg/day PO, 4 consecutive days (QD × 4)
[20] = plasma, 20 mg/kg/day, mouse plasma, 20 mg/kg/day PO, single dose (QD × 1)
[21] = mouse brain, 20 mg/kg/day PO, 4 consecutive days (QD × 4)
[22] = mouse brain, 20 mg/kg/day PO, single dose (QD × 1)
[23] = mouse liver, 20 mg/kg/day PO, 4 consecutive days (QD × 4)
[24] = mouse liver, 20 mg/kg/day PO, single dose (QD × 1)

Aurora A, sequence (O14965 whole entry): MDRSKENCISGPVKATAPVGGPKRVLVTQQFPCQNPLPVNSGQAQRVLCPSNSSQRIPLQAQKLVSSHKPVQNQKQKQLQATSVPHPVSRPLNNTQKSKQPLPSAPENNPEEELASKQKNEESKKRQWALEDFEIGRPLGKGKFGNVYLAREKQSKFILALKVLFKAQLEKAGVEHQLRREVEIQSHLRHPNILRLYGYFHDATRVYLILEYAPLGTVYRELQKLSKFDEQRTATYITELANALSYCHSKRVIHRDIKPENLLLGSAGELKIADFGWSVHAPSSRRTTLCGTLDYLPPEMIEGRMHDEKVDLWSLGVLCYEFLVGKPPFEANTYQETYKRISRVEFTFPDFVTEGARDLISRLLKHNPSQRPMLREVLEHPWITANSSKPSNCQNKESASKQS

SMILES: CC(C)(CCCCc1ccc(CCCCC(C)(C)C(=O)O)cc1)C(=O)O [Compound I-1, 6-[4-(5-carboxy-5-methylhexyl)-phenyl]-2,2-dimethylhexanoic acid]
- % Enzyme Activity (relative to DMSO controls) [1]: 83.92%
- % Enzyme Activity (relative to DMSO controls) [2]: 100.06%
- % Enzyme Activity (relative to DMSO controls) [3]: 92.75%
- % Enzyme Activity (relative to DMSO controls) [4]: 106.55%
- % Enzyme Activity (relative to DMSO controls) [5]: 101.58%
- Formation of the CoA derivative (LCMS detection, fragmentation confirmation) [6]: detected
- Bioavailability in brain compared to liver (fold lower) [7]: 300-400 fold
- Cmax [7, 9]: 1020 ng/g
- Tmax [7, 9]: 15 min
- Cmax [7, 10]: 1390 ng/g
- Tmax [7, 10]: 15 min
- Cmax [7, 11]: 168 ng/g
- Tmax [7, 11]: 240 min
- Cmax [7, 12]: 492 ng/g
- Tmax [7, 12]: 120 min
- Cmax [7, 13]: 21500 ng/g
- Tmax [7, 13]: 15 min
- Cmax [7, 14]: 46600 ng/g
- Tmax [7, 14]: 15 min
- Cmax [7, 15]: 30900 ng/g
- Tmax [7, 15]: 15 min
- Cmax [7, 16]: 27000 ng/g
- Tmax [7, 16]: 15 min
- AUC(0-t) [7, 17]: 1670 µg·h/mL
- Cmax [7, 17]: 90 µg/mL
- Tmax [7, 17]: 15 min
- AUC(0-t) [7, 18]: 1090 µg·h/mL
- Cmax [7, 18]: 76.1 µg/mL
- Tmax [7, 18]: 15 min
- AUC(0-t) [7, 19]: 1170 µg·h/mL
- Cmax [7, 19]: 102 µg/mL
- Tmax [7, 19]: 15 min
- AUC(0-t) [7, 20]: 1380 µg·h/mL
- Cmax [7, 20]: 102 µg/mL
- Tmax [7, 20]: 15 min
- AUC0-t (h*ng/g) [7, 21]: 1,220 h*ng/g
- AUC0-t (h*ng/g) [7, 22]: 1,183 h*ng/g
- AUC0-t (h*ng/g) ([7]; mouse brain, QD × 1, value in parentheses marked * (reanalysis per footnote of Tables 8-9)): (2,091)* h*ng/g
- AUC0-t (h*ng/g) ([7]; mouse brain, QD × 4, value in parentheses marked * (reanalysis per footnote of Tables 8-9)): (3,995)* h*ng/g
- AUC0-t (h*ng/g) [7, 23]: 687,414 h*ng/g
- AUC0-t (h*ng/g) [7, 24]: 425,184 h*ng/g
- AUC0-t (h*ng/g) ([7]; mouse liver, QD × 1, value in parentheses: timepoint 0.25 h samples after reanalysis): (469,726)* h*ng/g
- AUC0-t (h*ng/g) ([7]; mouse liver, QD × 4, value in parentheses: timepoint 0.25 h samples after reanalysis): (718,455)* h*ng/g
- Inhibition of liver lipogenesis [8]: 69%

SMILES: CC(C)(CCCCc1cccc(CCCCC(C)(C)C(=O)O)c1)C(=O)O [Compound I-32, 6-[3-(5-carboxy-5-methylhexyl)-phenyl]-2,2-dimethylhexanoic acid]
- % Enzyme Activity (relative to DMSO controls) [1]: 93.33%
- % Enzyme Activity (relative to DMSO controls) [2]: 102.21%
- % Enzyme Activity (relative to DMSO controls) [3]: 90.61%
- % Enzyme Activity (relative to DMSO controls) [4]: 110.73%
- % Enzyme Activity (relative to DMSO controls) [5]: 99.68%
- Formation of the CoA derivative (LCMS detection, fragmentation confirmation) [6]: detected
- Bioavailability in brain compared to liver (fold lower) [7]: 300-400 fold
- Cmax [7, 11]: 604 ng/g
- Tmax [7, 11]: 240 min
- Cmax [7, 12]: 362 ng/g
- Tmax [7, 12]: 120 min
- Cmax [7, 15]: 43000 ng/g
- Tmax [7, 15]: 240 min
- Cmax [7, 16]: 25100 ng/g
- Tmax [7, 16]: 120 min
- AUC(0-t) [7, 19]: 758 µg·h/mL
- Cmax [7, 19]: 76.5 µg/mL
- Tmax [7, 19]: 240 min
- AUC(0-t) [7, 20]: 240 µg·h/mL
- Cmax [7, 20]: 50.2 µg/mL
- Tmax [7, 20]: 120 min
- AUC0-t (h*ng/g) [7, 21]: 6,304 h*ng/g
- AUC0-t (h*ng/g) [7, 22]: 1,527 h*ng/g
- AUC0-t (h*ng/g) [7, 23]: 100,6991 h*ng/g
- AUC0-t (h*ng/g) [7, 24]: 405,934 h*ng/g
- Inhibition of liver lipogenesis [8]: ~50%
